Tests used:
[1] = biological target: D-amino-acid oxidase (Homo sapiens, UniProt P14920); assay: Inhibition of human recombinant DAAO expressed in HEK293 cell lysate assessed as D-Serine conversion to H2O2 after 20 mins by spectrophotometric analysis; assay type: cell-free
[2] = biological target: D-amino-acid oxidase (Sus scrofa, UniProt P00371); assay: Inhibition of pig DAAO assessed as D-Serine conversion to H2O2 by spectrophotometric analysis
Chain of D-amino-acid oxidase (Sus scrofa, UniProt P00371) (P00371 whole entry): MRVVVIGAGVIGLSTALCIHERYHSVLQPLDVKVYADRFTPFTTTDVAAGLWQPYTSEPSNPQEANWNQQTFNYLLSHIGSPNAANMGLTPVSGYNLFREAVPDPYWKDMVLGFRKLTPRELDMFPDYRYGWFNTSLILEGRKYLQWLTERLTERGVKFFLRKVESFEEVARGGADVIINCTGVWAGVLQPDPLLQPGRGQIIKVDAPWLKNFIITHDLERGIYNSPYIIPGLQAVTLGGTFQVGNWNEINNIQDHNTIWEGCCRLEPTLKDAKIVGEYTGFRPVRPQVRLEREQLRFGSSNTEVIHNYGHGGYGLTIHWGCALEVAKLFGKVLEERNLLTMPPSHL

Chain of D-amino-acid oxidase (Homo sapiens, UniProt P14920) (P14920 whole entry): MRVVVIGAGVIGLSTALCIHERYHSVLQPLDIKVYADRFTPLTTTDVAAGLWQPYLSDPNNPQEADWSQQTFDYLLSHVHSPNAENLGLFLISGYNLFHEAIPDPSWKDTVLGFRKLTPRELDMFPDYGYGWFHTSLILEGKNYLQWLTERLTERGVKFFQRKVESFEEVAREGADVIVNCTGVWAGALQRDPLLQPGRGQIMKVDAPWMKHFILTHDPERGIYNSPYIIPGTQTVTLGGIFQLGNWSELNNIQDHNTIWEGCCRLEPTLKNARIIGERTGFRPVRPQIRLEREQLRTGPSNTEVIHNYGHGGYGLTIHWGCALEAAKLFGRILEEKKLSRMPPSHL

Row | SMILES | IC50 [1] [nM] | IC50 [2] [nM]
1 | O=c1cc(CCc2ccccc2)occ1O | 500 | –
2 | CCOCc1cc(=O)c(O)co1 | > 100000 | –
3 | O=c1cc(COc2ccc(Cl)c(Cl)c2)occ1O | 500 | –
4 | O=c1cc(CSc2ccc(Cl)cc2)occ1O | 200 | –
5 | COCc1cc(=O)c(O)co1 | 50000 | –
6 | O=c1cc(CSc2ncccn2)occ1O | 4000 | –
7 | O=c1cc(COCc2ccccc2)occ1O | 20000 | –
8 | O=c1ccn(CCc2ccccc2)cc1O | > 100000 | –
9 | O=c1cc(COc2cccnc2)occ1O | 3000 | –
10 | O=c1cc(CSc2ccc(F)cc2)occ1O | 300 | –
11 | COc1coc(CO)cc1=O | > 100000 | –
12 | O=C(O)c1ccc[nH]1 | – | < 10000
13 | O=c1cc(CSc2ccc(Cl)c(Cl)c2)occ1O | 100 | –
14 | O=C(O)c1cc[nH]n1 | – | < 100000
15 | O=c1cc(COc2ccc(F)cc2)occ1O | 800 | –
16 | O=c1cc(COc2ccccc2)occ1O | 900 | –
17 | O=C(O)c1cc(CCc2ccccc2)c[nH]1 | – | < 1000
18 | O=c1cc(COc2ccc3ccccc3c2)occ1O | 800 | –
19 | O=c1cc(CSc2ccccc2)occ1O | 200 | –
20 | O=c1cc(COC2CCCCO2)occ1O (stereo not drawn) | > 100000 | –
21 | O=c1cc(COc2cccc3ccccc23)occ1O | 900 | –
22 | O=C(O)c1cc(CCc2ccccc2)[nH]n1 | – | < 1000
23 | O=c1cc(COc2ccc(Cl)cc2)occ1O | 700 | –
